# Test results published in the NIST ThermoML archive (doi:10.1021/acs.jced.9b00411).
# ± gives the expanded uncertainty stated by the source.
# Conditions: Crystal; DSC
structure (smiles),measurement,value
Nc1ccc(S(N)(=O)=O)cc1 [4-aminobenzenesulfonamide],Triple point temperature,437.78 ± 1.2 K
